The values that follow come from patent US4395405A, “Alkyl-ketohexopyranoside derivatives and method of use” (Hisamitsu Pharmaceutical Co., Inc., priority 1979, dated 1983).

Bounds are passed on as bounds.

The test system of series [1] is IgG and IgM. Nature of the series: Amount of antibodies formed in mice, PHA reaction. In kind it is in vivo, mice (BALB/c strain), female. The note with it: 100 mg/Kg/day for 5 days. The method, then: The collected serum was diluted in various concentrations and incubated with sheep red blood cells coupled with DNP-As using bis-diazoated benzydine to determine the dilution of the serum which induced the minimum hemaglutination.
(§1) Effects on the formation of homocytotropic antibodies in mice
(§2) Groups each consisting of 5 female mice (BALB/c strain) were used in this experiment. The mice were sensitized with 10 μg of DNP-As as protein and 3 mg of Al(OH)3, after which the test compound was administered to the sensitized mice for 5 days (at a dose of 100 mg/Kg/day). After the sensitization, a sample of serum was collected from the mice and treated in the same manner as in Experiment 1 to determine the amount of antibodies formed. […]

Series [2] concerns IgE antibodies. The experiment in a line: Formation of homocytotropic antibodies in rats, PCA (passive cutaneous anaphylaxis) reaction. In kind it is in vivo, rats of wistar strain. Conditions: hypodermic administration, serum 8 days after sensitization. As for the experimental part: (§3) Effects on the formation of homocytotropic antibodies in rats
(§4) An experiment was carried out in accordance with the Tada and Okumura's method (J. Immunol., Vol. 106, p 1002, 1971).
(§5) Groups each consisting of 8-9 rats of wistar strain were used in this experiment.
(§6) As shown in Tables 2-5, to the four legs of the rats were injected 1 mg of dinitrophenylated extract of ascaris suum (DNP-As) as protein and 10^10 cells of vaccinum pertussis (B. Pertussis) for sensitization, after which the compounds of this invention were administered to the injected rats for 5 days. Eight to nine days after the sensitization, bloodletting was effected on these rats to collect their serum for estimating the amount of antibodies formed using passive cutaneous anaphylaxis (PCA) reactions and phytohemaglutinin (PHA) reactions.
(1) Estimation of the amount of antibodies by PCA reaction:
The collected serum was diluted in various concentrations and intradermally injected to other rats. Forty-eight (48) hours after the injection, 2 mg of DNP-As as protein and 0.5 ml of a 1% Evans Blue were intravenously injected into these rats to determine the dilution of the serum which induced the minimum extravasted dye. It should be noted that the symbols "*" and "**" in the following Tables indicate significant differences at risks of 5% and 1%, respectively. […]

Series [3] can be described thus: Acute poisoning test on mice. The note with it: mouse, in vivo, three weeks. The method, then: (§7) Each of the test compounds was suspended in a physiological solution of sodium chloride containing 0.5% of tragacanth gum to obtain a test suspension. The test suspensions so obtained were administered to rats and mice in various ways. LD50 was calculated from test animals which died in three weeks after the start of the test.

Series [4] in a line: Acute poisoning test on rats. The note with it: rat, in vivo, three weeks. The method, then:
as §7

Series [5] has as its system IgG and IgM. The experiment in a line: Amount of antibodies formed in rats, PHA (phytohemaglutinin) reaction. In kind it is in vivo, rats of wistar strain. The note with it: hypodermic administration, serum 8 days after sensitization. The method, then:
as §3, §4, §5, §6
(2) Estimation of the amount of antibodies by PHA reaction:
The collected serum was diluted in various concentrations and incubated with sheep red blood cells coupled with DNP-As using bis-diazoated benzydine to determine the dilution of the serum which induced the minimum hemaglutination. […]

The test system of series [6] is IgE antibodies. Nature of the series: Formation of homocytotropic antibodies in mice, PCA reaction. The format is in vivo, mice (BALB/c strain), female. Conditions: 100 mg/Kg/day for 5 days. As for the experimental part:
The collected serum was diluted in various concentrations and intradermally injected to other rats. Forty-eight (48) hours after the injection, 2 mg of DNP-As as protein and 0.5 ml of a 1% Evans Blue were intravenously injected into these rats to determine the dilution of the serum which induced the minimum extravasted dye. It should be noted that the symbols "*" and "**" in the following Tables indicate significant differences at risks of 5% and 1%, respectively.
as §1, §2

[7] abbreviates: Table 11, hypodermic, serum 9 days after, control 380.2 (269.2-537.0).
Where [8] appears, read: Table 11, hypodermic, serum 10 days after, control 109.7 (95.5-125.9).
[9] abbreviates: Table 11, hypodermic, serum 37 days after, control 1071.5 (871.0-1318.3).
The mark [10] stands for this setting: Table 7, oral, serum 10 days after sensitization, control 537.0 (436.5-660.7).
Where [11] appears, read: Table 8, hypodermic, serum 9 days after, control 708.0 (575.4-871.0).
[12] abbreviates: Table 8, hypodermic, serum 10 days after, control 537.0 (380.2-758.6).
Setting [13] is: Table 8, hypodermic, serum 37 days after, control 2818.4 (1862.1-4265.8).

As a reminder, the LD50 is the dose expected to kill half of the subjects tested.

`CCCOC1(CO)OCC(O)C(O)C1O` [Compound No. 7, n-propyl-α-L-sorbopyranoside]: the “PHA of mice (serum dilution)” value with IgG and IgM [1] (setting [7]) was 309.0 (251.2-380.2); with IgG and IgM [1] (setting [8]), 166.0 (134.9-204.2); in the series with IgG and IgM [1] (setting [9]), 1000 (758.6-1318.3). For the same molecule, in the series with IgE antibodies [2] (Table 3 left half, control 144.5 (117.5-177.8)), the “PCA of rat: dilution of the serum which induced the minimum extravasted dye” value came out at 67.6. Also, the LD50 at 504 h in series [3] (ip, abdominally, male) is above 1000 mg/kg; in series [3] (iv, intravenously, male) it was above 2000 mg/kg; in series [3] (po, orally, male), above 5000 mg/kg; in series [3] (sc, hypodermically, male), above 5000 mg/kg; in series [4] (ip, abdominally, male), above 5000 mg/kg; in series [4] (iv, intravenously, male) it was above 2000 mg/kg. The LD50 at 504 h in series [4] (po, orally, male) is above 5000 mg/kg; in series [4] (sc, hypodermically, male), above 5000 mg/kg. For the same molecule, the “PHA of rat: dilution of the serum which induced the minimum hemaglutination” value in the series on IgG and IgM [5] (Table 5 left half, control 1318.3 (933.3-1862.1)) was 5248.1. Further, the “PCA of mice (serum dilution)” value came to 218.8 in the series with IgE antibodies [6] (setting [10]), 660.7 in the series with IgE antibodies [6] (setting [11]), 407.4 in the series with IgE antibodies [6] (setting [12]) and 1995.3 in the series with IgE antibodies [6] (setting [13]).
Regarding `CC(C)COC1(CO)OCC(O)C(O)C1O` [Compound No. 10, isobutyl-α-L-sorbopyranoside], the “PHA of mice (serum dilution)” value was 109.7 in the series on IgG and IgM [1] (Table 10, oral, serum 10 days after, control 125.9 (95.5-166.0)); 154.9 (125.9-190.6) in the series with IgG and IgM [1] (setting [7]); 102.3 (83.2-125.9) with IgG and IgM [1] (setting [8]); 1148.2 (933.3-1412.5) in the series on IgG and IgM [1] (setting [9]). For the same molecule, the “PCA of rat: dilution of the serum which induced the minimum extravasted dye” value with IgE antibodies [2] (Table 3 right half, control 269.2 (218.8-331.1)) is on record as 177.8 (134.9-234.4). Further, the LD50 at 504 h lay in the range of 500 to 1000 mg/kg in series [3] (ip, abdominally, female); 500 to 1000 mg/kg in series [3] (ip, abdominally, male); 1000 to 2000 mg/kg in series [3] (iv, intravenously, female); 1000 to 2000 mg/kg in series [3] (iv, intravenously, male); 2000 to 5000 mg/kg in series [3] (po, orally, female); 2000 to 5000 mg/kg in series [3] (po, orally, male). Further, the LD50 at 504 h in series [3] (sc, hypodermically, female) is around 2000 mg/kg; in series [3] (sc, hypodermically, male) it was around 2000 mg/kg; in series [4] (ip, abdominally, female), around 2000 mg/kg; in series [4] (ip, abdominally, male) it was around 2000 mg/kg; in series [4] (iv, intravenously, female), 1000 to 2000 mg/kg; in series [4] (iv, intravenously, male) it was 1000 to 2000 mg/kg. Besides, the LD50 at 504 h in series [4] (po, orally, female) was above 5000 mg/kg; in series [4] (po, orally, male), above 5000 mg/kg; in series [4] (sc, hypodermically, female), above 5000 mg/kg; in series [4] (sc, hypodermically, male), above 5000 mg/kg. In the series with IgG and IgM [5] (Table 5 right half, control 3235.9 (2454.7-4265.8)), the “PHA of rat: dilution of the serum which induced the minimum hemaglutination” value is listed as 5248.1 (3715.4-7413.1). Besides, the “PCA of mice (serum dilution)” value in the series with IgE antibodies [6] (setting [10]) is 501.2; in the series with IgE antibodies [6] (setting [11]), 537.0; with IgE antibodies [6] (setting [12]), 708.0; in the series on IgE antibodies [6] (setting [13]), 1513.6.
